Like-named read-outs stand apart in the source and are kept apart here.
Legend:
Type in all cases: cell-based
PC3 cells = test: cells; conditions: Homo sapiens
Method: (§1) Studies were carried out on three prostate cancer cell lines: LNCaP, PC3, and DU145. […] There was not a significant difference in cytotoxicity of emetine between days 3 and 7. […] This increase is most likely due to the release of emetine from the dithiocarbamate salt over the time period. Further drug release studies at pH 5 confirmed about 45% release of emetine from the dithiocarbamate salt after 3-day incubation at this acidic pH maintained at 37° C., whereas release of emetine from the dithiocarbamate salt was not observed at physiological pH (e.g., about 7.4).
(§2) Various compounds prepared according to Examples 1-5 were studied in LNCaP, PC3, and DU145 cells.
(§3) Various compounds prepared according to Example 6 were studied in DU145 and PC3 cells. The IC50 was determined at 3, 5, and 7 days.

DU145 cells = test: cells; conditions: Homo sapiens
Method: as §1, §2, §3

LNCaP cells = test: Cytotoxicity in LNCaP prostate cancer cell line; conditions: Homo sapiens, 168 h, read-out: IC50 after 7 days
Method: as §1, §2

[1] = PC-3, 168 h, read-out: IC50 after 7 days
[2] = DU-145, 168 h, read-out: IC50 after 7 days
[3] = PC-3, 72 h, read-out: IC50 in PC3
[4] = PC-3, 120 h, read-out: IC50 in PC3
[5] = PC-3, 168 h, read-out: IC50 in PC3
[6] = DU-145, 72 h, read-out: IC50 in DU145
[7] = DU-145, 120 h, read-out: IC50 in DU145
[8] = DU-145, 168 h, read-out: IC50 in DU145

| SMILES | IC50 (PC3 cells; [1]) | IC50 (DU145 cells; [2]) | IC50 (LNCaP cells) | other results |
| --- | --- | --- | --- | --- |
| CCC1CN2CCc3cc(OC)c(OC)cc3C2CC1CC1c2cc(OC)c(OC)cc2CCN1C(=S)Nc1ccccc1 (stereo not drawn) [Compound 11a] | 0.484 ± 0.0247 µM | – | – | – |
| CCC1CN2CCc3cc(OC)c(OC)cc3C2CC1CC1c2cc(OC)c(OC)cc2CCN1C(=S)Nc1ccc(OC)cc1 (stereo not drawn) [Compound 11b] | – | 467 ± 25 nM | – | – |
| CCC1CN2CCc3cc(OC)c(OC)cc3C2CC1CC1c2cc(OC)c(OC)cc2CCN1C(=S)Nc1ccc(Cl)cc1 (stereo not drawn) [Compound 11c] | 0.505 ± 0.0159 µM | – | – | – |
| CCC1CN2CCc3cc(OC)c(OC)cc3C2CC1CC1c2cc(OC)c(OC)cc2CCN1C(=S)Nc1ccc(Br)cc1 (stereo not drawn) [Compound 11d] | 0.443 ± 0.0383 µM | – | 339 ± 32.7 nM | – |
| CCC1CN2CCc3cc(OC)c(OC)cc3C2CC1CC1c2cc(OC)c(OC)cc2CCN1C(=S)NCc1ccccc1 (stereo not drawn) [Compound 11e] | 6.92 ± 0.0711 µM | 1540 ± 254 nM | 2060 ± 438 nM | – |
| CCC1CN2CCc3cc(OC)c(OC)cc3C2CC1CC1c2cc(OC)c(OC)cc2CCN1C(=S)NCc1ccc(OC)cc1 (stereo not drawn) [Compound 11f] | 5 ± 0.307 µM | – | – | – |
| CCC1CN2CCc3cc(OC)c(OC)cc3C2CC1CC1c2cc(OC)c(OC)cc2CCN1C(=S)NCc1ccc(Cl)cc1 (stereo not drawn) [Compound 11g] | 2.86 ± 0.0662 µM | 2320 ± 91 nM | 1590 ± 151 nM | – |
| CCC1CN2CCc3cc(OC)c(OC)cc3C2CC1CC1c2cc(OC)c(OC)cc2CCN1C(=S)NCc1ccccc1Cl (stereo not drawn) [Compound 11h] | – | 2370 ± 112 nM | – | – |
| CCC1CN2CCc3cc(OC)c(OC)cc3C2CC1CC1c2cc(OC)c(OC)cc2CCN1C(=S)NCc1ccc(F)cc1 (stereo not drawn) [Compound 11i] | 5.27 ± 0.372 µM | – | – | – |
| CCC1CN2CCc3cc(OC)c(OC)cc3C2CC1CC1c2cc(OC)c(OC)cc2CCN1C(=S)NCc1ccc(C)cc1 (stereo not drawn) [Compound 11j] | – | 2630 ± 106 nM | – | – |
| CCCCNC(=S)N1CCc2cc(OC)c(OC)cc2C1CC1CC2c3cc(OC)c(OC)cc3CCN2CC1CC (stereo not drawn) [Compound 11k] | 6.92 ± 0.17 µM | 6587 ± 34.8 nM | 1310 ± 166 nM | – |
| CCCCCCNC(=S)N1CCc2cc(OC)c(OC)cc2C1CC1CC2c3cc(OC)c(OC)cc3CCN2CC1CC (stereo not drawn) [Compound 11l] | 2.45 ± 0.323 µM | – | 1700 ± 144 nM | – |
| CCCCCCCCNC(=S)N1CCc2cc(OC)c(OC)cc2C1CC1CC2c3cc(OC)c(OC)cc3CCN2CC1CC (stereo not drawn) [Compound 11m] | 1.43 ± 0.336 µM | – | 1010 ± 249 nM | – |
| CCC1CN2CCc3cc(OC)c(OC)cc3C2CC1CC1c2cc(OC)c(OC)cc2CCN1C(=S)NCCOC (stereo not drawn) [Compound 11n] | > 10 µM | – | – | – |
| CCC1CN2CCc3cc(OC)c(OC)cc3C2CC1CC1c2cc(OC)c(OC)cc2CCN1C(=O)NCc1ccccc1 (stereo not drawn) [Compound 13e] | – | – | 2120 ± 576 nM | – |
| CCC1CN2CCc3cc(OC)c(OC)cc3C2CC1CC1c2cc(OC)c(OC)cc2CCN1C(=O)/C=C/C(=O)O (stereo not drawn) [Compound 15a2] | – | – | – | IC50 (PC3 cells; [3]): 8.39 ± 0.208 µM; IC50 (PC3 cells; [4]): 7.058 ± 0.0157 µM; IC50 (PC3 cells; [5]): 7.71 ± 0.151 µM; IC50 (DU145 cells; [6]): 7960 ± 312 nM; IC50 (DU145 cells; [7]): 5730 ± 182 nM; IC50 (DU145 cells; [8]): 4230 ± 418 nM |
| CCC1CN2CCc3cc(OC)c(OC)cc3C2CC1CC1c2cc(OC)c(OC)cc2CCN1C(=O)/C(Cl)=C(\Cl)C(=O)O (stereo not drawn) [Compound 15b2] | – | – | – | IC50 (PC3 cells; [3]): 7.58 ± 0.135 µM; IC50 (PC3 cells; [4]): 5.99 ± 0.239 µM; IC50 (PC3 cells; [5]): 7.51 ± 0.168 µM; IC50 (DU145 cells; [6]): 6530 ± 85.2 nM; IC50 (DU145 cells; [7]): 5990 ± 238 nM; IC50 (DU145 cells; [8]): 5218 ± 45.9 nM |
| CCC1CN2CCc3cc(OC)c(OC)cc3C2CC1CC1c2cc(OC)c(OC)cc2CCN1C(=O)/C=C(/CC(=O)O)C(=O)O (stereo not drawn) [Compound 15d2] | – | – | – | IC50 (PC3 cells; [3]): 3.06 ± 0.11 µM; IC50 (PC3 cells; [4]): 2.43 ± 0.118 µM; IC50 (PC3 cells; [5]): 2.89 ± 0.123 µM; IC50 (DU145 cells; [6]): 2580 ± 190 nM; IC50 (DU145 cells; [7]): 2010 ± 73.4 nM; IC50 (DU145 cells; [8]): 1790 ± 134 nM |
| CCC1CN2CCc3cc(OC)c(OC)cc3C2CC1CC1c2cc(OC)c(OC)cc2CCN1C(=O)CCC(=O)O (stereo not drawn) [Compound 15e2] | – | – | – | IC50 (PC3 cells; [3]): 2.5 ± 0.0722 µM; IC50 (PC3 cells; [4]): 1.82 ± 0.161 µM; IC50 (PC3 cells; [5]): 2.15 ± 0.131 µM; IC50 (DU145 cells; [6]): 733 ± 22 nM; IC50 (DU145 cells; [7]): 641 ± 54.3 nM; IC50 (DU145 cells; [8]): 802 ± 19.8 nM |

Source: patent US11780833B2, “Emetine derivatives, prodrugs containing same, and methods of treating conditions using same” (HOWARD UNIVERSITY, priority 2011, dated 2023)
